This passage reports T/C results from PubChem BioAssay AID292 (DTP/NCI, 2004).

Where “and” joins values, the source holds several entries; their conditions need not be identical. Equal values may be shown once. Inconclusive results and toxic doses are left out.

This assay concerns B6C3F1 mice, ip Sarcoma M5076, median survival T/C. As to the kind of experiment: NCI In Vivo Anticancer Drug Screen. Data for tumor model Sarcoma M5076 (intraperitoneal) in B6C3F1 mice. Conditions: endpoint: median survival time, higher = longer survival. The method, boiled down:
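Antitumour effect is judged in tumour-bearing mice by comparing survival after compound dosing against vehicle-only animals, reported as T/C.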

The mark [1] stands for this setting: dose: 50.0 mg/kg/injection, schedule: Q04DX004 (ip), vehicle: Klucel (hydroxypropylcellulose) (HPC).
[2] abbreviates: dose: 100.0 mg/kg/injection, schedule: Q04DX004 (ip), vehicle: Klucel (hydroxypropylcellulose) (HPC).
The mark [3] stands for this setting: dose: 200.0 mg/kg/injection, schedule: Q04DX004 (ip), vehicle: Klucel (hydroxypropylcellulose) (HPC).
Setting [4] is: dose: 400.0 mg/kg/injection, schedule: Q04DX004 (ip), vehicle: Klucel (hydroxypropylcellulose) (HPC).
The mark [5] stands for this setting: dose: 37.5 mg/kg/injection, schedule: Q04DX004 (ip), vehicle: saline with Tween-80.
Where [6] appears, read: dose: 75.0 mg/kg/injection, schedule: Q04DX004 (ip), vehicle: saline with Tween-80.
Setting [7] is: dose: 50.0 mg/kg/injection, schedule: Q04DX004 (ip), vehicle: saline with Tween-80.
Setting [8] is: dose: 100.0 mg/kg/injection, schedule: Q04DX004 (ip), vehicle: saline with Tween-80.
The mark [9] stands for this setting: dose: 200.0 mg/kg/injection, schedule: Q04DX004 (ip), vehicle: saline with Tween-80.
Where [10] appears, read: dose: 400.0 mg/kg/injection, schedule: Q04DX004 (ip), vehicle: saline with Tween-80.
Where [11] appears, read: dose: 25.0 mg/kg/injection, schedule: Q04DX004 (ip), vehicle: saline with Tween-80.
The mark [12] stands for this setting: dose: 25.0 mg/kg/injection, schedule: Q04DX004 (ip), vehicle: Klucel (hydroxypropylcellulose) (HPC).

Consider `COC(=O)c1ccc(N=NN(C)COC(C)=O)cc1`, for which the T/C reads like this: (dose: 30.0 mg/kg/injection, schedule: Q04DX004 (ip), vehicle: Klucel (hydroxypropylcellulose) (HPC)) 123 % of control; (dose: 60.0 mg/kg/injection, schedule: Q04DX004 (ip), vehicle: Klucel (hydroxypropylcellulose) (HPC)) 123 % of control; (dose: 103.7 mg/kg/injection, schedule: Q04DX004 (ip), vehicle: Klucel (hydroxypropylcellulose) (HPC)) 175 % of control; (dose: 172.8 mg/kg/injection, schedule: Q04DX004 (ip), vehicle: Klucel (hydroxypropylcellulose) (HPC)) 188 % of control; (dose: 288.0 mg/kg/injection, schedule: Q04DX004 (ip), vehicle: Klucel (hydroxypropylcellulose) (HPC)) 195 % of control; (dose: 480.0 mg/kg/injection, schedule: Q04DX004 (ip), vehicle: Klucel (hydroxypropylcellulose) (HPC)) 167 % of control.

In the case of `CCc1nc(N)nc(N)c1-c1ccc(Cl)c(N=[N+]=[N-])c1`, the T/C reads like this: (dose: 8.37 mg/kg/injection, schedule: Q04DX004 (ip), vehicle: water) 107 % of control; (dose: 16.75 mg/kg/injection, schedule: Q04DX004 (ip), vehicle: water) 108 % of control; (dose: 33.5 mg/kg/injection, schedule: Q04DX004 (ip), vehicle: distilled water + Tween-80) 102 % of control; (dose: 33.5 mg/kg/injection, schedule: Q04DX004 (ip), vehicle: water) 119 % of control; (dose: 67.0 mg/kg/injection, schedule: Q04DX004 (ip), vehicle: distilled water + Tween-80) 109 % of control; (dose: 134.0 mg/kg/injection, schedule: Q04DX004 (ip), vehicle: distilled water + Tween-80) 102 % of control. The T/C (dose: 536.0 mg/kg/injection, schedule: Q04DX004 (ip), vehicle: distilled water + Tween-80) is 174 % of control.

Regarding `CC(=O)C1C(=O)C(=O)N(c2cc(C)ccc2O)C1=O` (stereo unspecified), the T/C by setting is: (dose: 50.0 mg/kg/injection, schedule: Q04DX004 (ip), vehicle: Klucel + Tween-80) 106 % of control; (dose: 100.0 mg/kg/injection, schedule: Q04DX004 (ip), vehicle: Klucel + Tween-80) 100 % of control.

Turning to `Cc1c2c(ccc3ccccc32)c[n+]2ccccc12`, the T/C by setting is: (dose: 1.5 mg/kg/injection, schedule: Q04DX004 (ip), vehicle: saline with Tween-80) 97 % of control and 104 % of control and 109 % of control; (dose: 3.0 mg/kg/injection, schedule: Q04DX004 (ip), vehicle: saline with Tween-80) 92 % of control and 97 % of control and 104 % of control; (dose: 6.0 mg/kg/injection, schedule: Q04DX004 (ip), vehicle: saline with Tween-80) 92 % of control and 107 % of control and 115 % of control; (dose: 12.0 mg/kg/injection, schedule: Q04DX004 (ip), vehicle: saline with Tween-80) 92 % of control.

Take `N#CC1C(=O)NC(=O)C(C#N)C1c1ccc(Cl)c(Cl)c1` (stereo unspecified): the T/C reads like this: under setting [1], 102 % of control; under setting [2], 94 % of control; under setting [3], 99 % of control; under setting [4], 102 % of control.

For the molecule `C=CCNc1nc2c(s1)c(C)c(O)c1ccccc12`, the T/C runs as follows: under setting [5], 98 % of control; under setting [6], 88 % of control.

For `CCNC(=O)[B-][N+](C)(C)C`, the T/C was 96 % of control under setting [7], 104 % of control under setting [8], 102 % of control under setting [9] and 92 % of control under setting [10].

Take `CC(=O)OC1OC(=O)C(C)(C(C)=O)C1C` (stereo unspecified): the T/C is, setting by setting: (dose: 2.5 mg/kg/injection, schedule: Q04DX004 (ip), vehicle: distilled water + alcohol) 100 % of control; (dose: 5.0 mg/kg/injection, schedule: Q04DX004 (ip), vehicle: distilled water + alcohol) 105 % of control; (dose: 10.0 mg/kg/injection, schedule: Q04DX004 (ip), vehicle: distilled water + alcohol) 104 % of control; (dose: 20.0 mg/kg/injection, schedule: Q04DX004 (ip), vehicle: distilled water + alcohol) 104 % of control; (dose: 40.0 mg/kg/injection, schedule: Q04DX004 (ip), vehicle: distilled water + alcohol) 95 % of control.

In the case of `CNC(=O)/C=C/C1=CN2C(=O)c3ccc(C)c(O)c3NC(OC)C2C1` (stereo unspecified), the T/C was 101 % of control and 108 % of control (dose: 12.5 micrograms/kg/injection, schedule: Q04DX004 (ip), vehicle: saline); 104 % of control and 124 % of control (dose: 25.0 micrograms/kg/injection, schedule: Q04DX004 (ip), vehicle: saline); 95 % of control and 108 % of control (dose: 50.0 micrograms/kg/injection, schedule: Q04DX004 (ip), vehicle: saline); 98 % of control and 115 % of control (dose: 100.0 micrograms/kg/injection, schedule: Q04DX004 (ip), vehicle: saline); 112 % of control (dose: 200.0 micrograms/kg/injection, schedule: Q04DX004 (ip), vehicle: saline).

On to `COc1ccc(CCN2C(=O)C(=O)N(c3cccc4c(N5C(=O)C(=O)N(CCc6ccc(OC)c(OC)c6)C5=O)cccc34)C2=O)cc1OC`, for which the T/C runs as follows: (dose: 18.75 mg/kg/injection, schedule: Q04DX004 (ip), vehicle: Klucel (hydroxypropylcellulose) (HPC)) 94 % of control; (dose: 37.5 mg/kg/injection, schedule: Q04DX004 (ip), vehicle: Klucel (hydroxypropylcellulose) (HPC)) 99 % of control; (dose: 75.0 mg/kg/injection, schedule: Q04DX004 (ip), vehicle: Klucel (hydroxypropylcellulose) (HPC)) 99 % of control; (dose: 150.0 mg/kg/injection, schedule: Q04DX004 (ip), vehicle: Klucel (hydroxypropylcellulose) (HPC)) 105 % of control.

For `CCCC1(c2ccccc2)C(=O)NCNC1=O`, the T/C under setting [1] is 99 % of control; the T/C under setting [2] is 95 % of control; the T/C under setting [3] was 88 % of control; the T/C under setting [4] is 88 % of control; the T/C (dose: 800.0 mg/kg/injection, schedule: Q04DX004 (ip), vehicle: Klucel (hydroxypropylcellulose) (HPC)) is 88 % of control.

Turning to `CC1=C(C(N)=O)C(c2ccccc2)NC(=S)N1` (stereo unspecified), the T/C is 107 % of control under setting [1], 99 % of control under setting [2] and 104 % of control under setting [3].

On to `COc1cc(/C=C/[N+](=O)[O-])cc(Br)c1OC`, for which the T/C by setting is: (dose: 12.5 mg/kg/injection, schedule: Q04DX004 (ip), vehicle: saline with Tween-80) 95 % of control; under setting [11], 90 % of control; under setting [7], 94 % of control; under setting [8], 107 % of control.

On to `COc1ccc2c(n1)Sc1nc3ccccc3nc1N2`, for which the T/C runs as follows: under setting [5], 92 % of control; under setting [6], 98 % of control; (dose: 150.0 mg/kg/injection, schedule: Q04DX004 (ip), vehicle: saline with Tween-80) 87 % of control.

In the case of `Nc1ccc2ccc(NS(=O)(=O)N3CCCCC3)cc2c1`, the T/C is 100 % of control under setting [7], 107 % of control under setting [8], 112 % of control under setting [9] and 120 % of control under setting [10].

On to `CCOC(=O)/C=C/C(=O)N1CCN(C(=O)/C=C/C(=O)OCC)C(C)C1` (stereo unspecified), for which the T/C runs as follows: under setting [12], 98 % of control; under setting [1], 107 % of control; under setting [2], 98 % of control; under setting [3], 108 % of control; under setting [4], 100 % of control.

Take `N/C(=N/N=C/c1cc(Br)cc(Br)c1O)NO`: the T/C is, setting by setting: (dose: 25.0 mg/kg/injection, schedule: Q04DX004 (ip), vehicle: suspension in saline) 102 % of control; (dose: 50.0 mg/kg/injection, schedule: Q04DX004 (ip), vehicle: suspension in saline) 98 % of control; (dose: 100.0 mg/kg/injection, schedule: Q04DX004 (ip), vehicle: suspension in saline) 110 % of control.

On to `Nc1ccc2ccc(N)cc2c1`, for which the T/C by setting is: under setting [11], 93 % of control; under setting [7], 96 % of control; under setting [8], 89 % of control; under setting [9], 93 % of control.

Consider `O=P1(N(CCCl)CCCl)NCCCO1` (stereo unspecified), for which the T/C reads like this: (dose: 80.0 mg/kg/injection, schedule: Q04DX003 (ip), vehicle: saline) 201 % of control; (dose: 160.0 mg/kg/injection, schedule: Q04DX003 (ip), vehicle: saline) 261 % of control.

`O=c1nc2[nH]c3c4cccc5cccc(c3nc2c(=O)[nH]1)c54`: the T/C was 103 % of control (dose: 12.5 mg/kg/injection, schedule: Q04DX004 (ip), vehicle: Klucel (hydroxypropylcellulose) (HPC)); 99 % of control under setting [12]; 98 % of control under setting [1]; 94 % of control under setting [2]; 103 % of control under setting [3].
